*1 amine or outer side, *2 acyl side, *3 side chain or, on linkers, in order; H or OH if unused. Where a SMILES comes first, the peptide text is derived from it. Bridges are numbered along the chain shown (N, C = ends). [ ]: non-standard residue; d: D form. The star is where a group is joined. ξ: configuration not given here. Phe(3-OMe,4-CONHMs) = COc1cc(C[C@H](N)C(=O)O)ccc1C(=O)NS(C)(=O)=O; hPhe(3-OMe,4-CONHMe) = CNC(=O)c1ccc(CC[C@H](N)C(=O)O)cc1OC; Phe(3-CONHMe,4-OMe) = CNC(=O)c1cc(C[C@H](N)C(=O)O)ccc1OC; X17 = CC(C)C[C@@H](C(=O)[*:2])C(C)C(=O)CCCN(C)[*:1]; NMePhe(3-Cl) = CN[C@@H](Cc1cccc(Cl)c1)C(=O)O; X12 = O=C([C@H](CCCC(O)C(F)(F)F)N[*:1])[*:2]; ξGln(SO2Me) = CS(=O)(=O)NC(=O)CCC(N)C(=O)O; Tyr(3-OMe) = COc1cc(C[C@H](N)C(=O)O)ccc1O; NMehPhe = CN[C@@H](CCc1ccccc1)C(=O)O; X9 = O=C([C@@H](CN[*:1])COCCO)[*:2]; X7 = O=C(C[C@H](COCCO)N[*:1])[*:2]; X6 = O=C([C@H](CCCCO)N[*:1])[*:2]; Hyp = O=C(O)[C@@H]1C[C@@H](O)CN1; NMeF = CN[C@@H](Cc1ccccc1)C(=O)O; NMeGABA = CN(CCCC(=O)[*:2])[*:1]; NMeI = CC[C@H](C)[C@H](NC)C(=O)O; CH2CH(OH)CF3 = OC(C*)C(F)(F)F; NMeL = CN[C@@H](CC(C)C)C(=O)O; NMeAbu = CC[C@H](NC)C(=O)O; NMeA = CN[C@@H](C)C(=O)O; Piperidide = C1CCN(*)CC1; X8 = C1COC[C@@H](C*)N1; NBuGly = CCCCNCC(=O)O; NPrGly = CCCNCC(=O)O; Ethyl(2-OH) = OCC*; Sar = CNCC(=O)O; tBu = CC(C)(C)*
assay: in vitro; details: human, Caco-2, Caco-2

Structure (SMILES)	Papp
CC(C)C[C@@H]1NC(=O)[C@H](CC(C)C)C(C)C(=O)CCCN(C)C(=O)C[C@@H](C(=O)N2CCCCC2)NC(=O)[C@H](CC(C)C)N(C)C(=O)[C@H](CC(C)C)N(C)C(=O)[C@H](CC(C)C)NC(=O)[C@H](CC(C)C)N(C)C(=O)C(CCC(=O)NS(C)(=O)=O)NC(=O)[C@H](Cc2ccccc2)N(C)C(=O)[C@H](Cc2ccccc2)N(C)C1=O (stereo partly drawn) [pd68] ([X17]L[NMeF][NMeF][ξGln(SO2Me)][NMeL]L[NMeL][NMeL]D-Piperidide; lactam N-10)	0.1 ×10⁻⁶ cm/s

same assay, conditions: human, Caco-2, Caco-2 (cm/sec)

Structure (SMILES)	Papp
CC[C@H]1C(=O)N[C@@H](CCCCO)C(=O)N(C)[C@@H](CC(C)C)C(=O)N(C)[C@@H](Cc2cccc(Cl)c2)C(=O)N[C@@H](CC(C)C)C(=O)N(C)[C@@H](CCc2ccccc2)C(=O)N(C)[C@@H](CC(C)C)C(=O)N[C@@H]([C@@H](C)O)C(=O)N(C)CC(=O)N(C)[C@@H](CC(C)C)C(=O)N[C@H](C(=O)N2CCCCC2)CC(=O)N1C [Compound B09] ([NMeAbu][X6][NMeL][NMePhe(3-Cl)]L[NMehPhe][NMeL]T[Sar][NMeL]D-Piperidide; lactam N-11)	0.31 ×10⁻⁶ cm/s
CCCCN1CC(=O)N(C)[C@@H](CC(C)C)C(=O)N[C@H](C(=O)N2CCCCC2)CC(=O)N(C)[C@@H](C)C(=O)N[C@@H](COC[C@@H]2COCCN2)C(=O)N(C)[C@@H](CC(C)C)C(=O)N(C)[C@@H](CC)C(=O)N[C@@H](C(C)C)C(=O)N(C)[C@@H](Cc2ccccc2)C(=O)N(C)[C@@H](CC(C)C)C(=O)N[C@@H]([C@@H](C)O)C1=O [AP243] ([NMeA]S(X8)[NMeL][NMeAbu]V[NMeF][NMeL]T[NBuGly][NMeL]D-Piperidide; lactam N-11)	0.46 ×10⁻⁶ cm/s
CCCCN1CC(=O)N(C)[C@@H](Cc2ccccc2)C(=O)N(C)[C@@H](CC(C)C)C(=O)N[C@@H](CC(C)C)C(=O)N(C)[C@@H](CC(C)C)C(=O)N[C@H](C(=O)N2CCCCC2)CC(=O)N(C)CC(=O)N(C)[C@@H](CC(C)C)C(=O)N[C@@H](Cc2ccc(O)c(OC)c2)C(=O)N(C)[C@@H](CC)C(=O)N[C@@H]([C@@H](C)O)C1=O [Compound E07] ([Sar][NMeL][Tyr(3-OMe)][NMeAbu]T[NBuGly][NMeF][NMeL]L[NMeL]D-Piperidide; lactam N-11)	1.1 ×10⁻⁶ cm/s
CC[C@H](C)[C@H]1C(=O)N2CCC[C@H]2C(=O)N(C)[C@@H](CC(C)C)C(=O)N[C@@H](COC(C)(C)C)C(=O)N2C[C@H](OCCO)C[C@H]2C(=O)N[C@@H]([C@@H](C)O)C(=O)N(C)[C@@H](CC(C)C)C(=O)N(C)[C@@H](CC(C)C)C(=O)N(C)[C@@H](CC(C)C)C(=O)N[C@H](C(=O)N2CCCCC2)CC(=O)N[C@H](CC(C)C)C(=O)N1C [AP238] ([dL][NMeI]P[NMeL]S(tBu)[Hyp](Ethyl(2-OH))T[NMeL][NMeL][NMeL]D-Piperidide; lactam N-11)	2 ×10⁻⁶ cm/s
CCCN1CC(=O)N(C)[C@@H](Cc2cccc(Cl)c2)C(=O)N(C)[C@@H](CC(C)C)C(=O)N[C@@H](COCCO)C(=O)N(C)[C@@H](CC(C)C)C(=O)N[C@H](C(=O)N2CCCCC2)CC(=O)N(C)CC(=O)N(C)[C@@H](CCc2ccccc2)C(=O)N[C@@H]([C@@H](C)CC)C(=O)N(C)[C@@H](CC(C)C)C(=O)N[C@@H]([C@@H](C)O)C1=O [Compound A08] ([Sar][NMehPhe]I[NMeL]T[NPrGly][NMePhe(3-Cl)][NMeL]S(Ethyl(2-OH))[NMeL]D-Piperidide; lactam N-11)	0.32 ×10⁻⁶ cm/s
CC[C@H]1C(=O)N[C@@H](CCc2ccc(C(=O)NC)c(OC)c2)C(=O)N(C)[C@@H](CC(C)C)C(=O)N(C)[C@@H](CC(C)C)C(=O)N[C@@H](C(C)C)C(=O)N(C)[C@@H](Cc2ccccc2)C(=O)N(C)[C@@H](CC(C)C)C(=O)N[C@@H]([C@@H](C)O)C(=O)N(C)CC(=O)N(C)[C@@H](CC(C)C)C(=O)N[C@H](C(=O)N2CCCCC2)CC(=O)N1C [AP205] ([NMeAbu][hPhe(3-OMe,4-CONHMe)][NMeL][NMeL]V[NMeF][NMeL]T[Sar][NMeL]D-Piperidide; lactam N-11)	0.79 ×10⁻⁶ cm/s
CCCCN1CC(=O)N(C)[C@@H](CC(C)C)C(=O)N[C@H](C(=O)N2CCCCC2)CC(=O)N(C)[C@@H](CC(C)C)C(=O)NC[C@@H](COCCO)C(=O)N(C)[C@@H](CC(C)C)C(=O)N(C)[C@@H](Cc2ccccc2)C(=O)N[C@@H](CC(C)C)C(=O)N(C)[C@@H](Cc2ccccc2)C(=O)N(C)[C@@H](CC(C)C)C(=O)N[C@@H]([C@@H](C)O)C1=O [AP131] ([NMeL][X9][NMeL][NMeF]L[NMeF][NMeL]T[NBuGly][NMeL]D-Piperidide; lactam N-11)	1.1 ×10⁻⁶ cm/s
CCCCN1CC(=O)N(C)[C@@H](CC(C)C)C(=O)N[C@@H](Cc2ccc(OC)c(C(=O)NC)c2)C(=O)N(C)[C@@H](CC(C)C)C(=O)N(C)[C@@H](CC(C)C)C(=O)N[C@H](C(=O)N2CCCCC2)CC(=O)N[C@H](CC(C)C)C(=O)N(C)[C@@H](Cc2ccccc2)C(=O)N[C@@H](C(C)C)C(=O)N(C)[C@@H](CC(C)C)C(=O)N[C@@H]([C@@H](C)O)C1=O [AP36] ([dL][NMeF]V[NMeL]T[NBuGly][NMeL][Phe(3-CONHMe,4-OMe)][NMeL][NMeL]D-Piperidide; lactam N-11)	0.26 ×10⁻⁶ cm/s
CC(C)C[C@@H]1NC(=O)[C@H](CC(C)C)N(C)C(=O)[C@H](Cc2cccc(Cl)c2)N(C)C(=O)[C@H](COCCO)CNC(=O)[C@H](CC(C)C)N(C)C(=O)CCCN(C)C(=O)C[C@@H](C(=O)N2CCCCC2)NC(=O)[C@H](CC(C)C)N(C)C(=O)[C@H](CC(C)C)N(C)C(=O)[C@H]([C@@H](C)O)NC(=O)[C@H](CC(C)C)N(C)C1=O [AP129] ([NMeGABA][NMeL][X9][NMePhe(3-Cl)][NMeL]L[NMeL]T[NMeL][NMeL]D-Piperidide; lactam N-11)	0.46 ×10⁻⁶ cm/s
CCCCN1CC(=O)N(C)[C@@H](Cc2ccccc2)C(=O)N(C)[C@@H](CC(C)C)C(=O)N[C@@H](CC(C)C)C(=O)N(C)[C@@H](CC(C)C)C(=O)N[C@H](C(=O)N2CCCCC2)CC(=O)N(C)CC(=O)N(C)[C@@H](CC)C(=O)N[C@@H](C(C)C)C(=O)N(C)[C@@H](CC)C(=O)N[C@@H](COC[C@@H]2COCCN2)C1=O [AP247] ([Sar][NMeAbu]V[NMeAbu]S(X8)[NBuGly][NMeF][NMeL]L[NMeL]D-Piperidide; lactam N-11)	0.69 ×10⁻⁶ cm/s
CCCCN1CC(=O)N(C)[C@@H](CC(C)C)C(=O)N[C@@H](COC(C)(C)C)C(=O)N(C)[C@@H]([C@@H](C)CC)C(=O)N(C)[C@@H](CC(C)C)C(=O)N[C@H](C(=O)N2CCCCC2)CC(=O)N[C@H](C)C(=O)N(C)[C@@H](Cc2ccccc2)C(=O)N[C@@H](Cc2ccc(C(=O)NS(C)(=O)=O)c(OC)c2)C(=O)N(C)[C@@H](CC(C)C)C(=O)N[C@@H]([C@@H](C)O)C1=O [AP137] ([dA][NMeF][Phe(3-OMe,4-CONHMs)][NMeL]T[NBuGly][NMeL]S(tBu)[NMeI][NMeL]D-Piperidide; lactam N-11)	< 0.29 ×10⁻⁶ cm/s
CC[C@H](C)[C@@H]1NC(=O)[C@H](CC(C)C)N(C)C(=O)CCCN(C)C(=O)C[C@@H](C(=O)N2CCCCC2)NC(=O)[C@H](CC(C)C)N(C)C(=O)[C@H](CC(C)C)N(C)C(=O)[C@H]([C@@H](C)O)NC(=O)[C@H](CC(C)C)N(C)C(=O)C[C@H](COCCO)NC(=O)[C@H](CC(C)C)N(C)C(=O)[C@H](Cc2cccc(Cl)c2)N(C)C1=O [AP22] ([NMeGABA][NMeL]I[NMePhe(3-Cl)][NMeL][X7][NMeL]T[NMeL][NMeL]D-Piperidide; lactam N-11)	0.23 ×10⁻⁶ cm/s
CC(C)C[C@@H]1NC(=O)[C@H](Cc2ccccc2)N(C)C(=O)[C@@H](C(C)C)NC(=O)C[C@@H](C(=O)N2CCCCC2)NC(=O)[C@H](Cc2ccccc2)N(C)C(=O)[C@H](Cc2ccccc2)N(C)C(=O)[C@H](C(C)C)NC(=O)[C@H](CC(C)C)N(C)C(=O)CN(C)C(=O)[C@H]([C@@H](C)O)NC(=O)[C@H](CC(C)C)N(C)C1=O [pd221] ([dV][NMeF]L[NMeL]T[Sar][NMeL]V[NMeF][NMeF]D-Piperidide; lactam N-11)	1.1 ×10⁻⁶ cm/s

same assay, conditions: human, Caco-2, Caco-2 (cm/sec) Papp

Structure (SMILES)	Papp
CC(C)C[C@@H]1NC(=O)[C@H](Cc2ccccc2)N(C)C(=O)[C@H]([C@@H](C)O)NC(=O)[C@H](Cc2ccccc2)NC(=O)[C@H](Cc2ccccc2)N(C)C(=O)C[C@@H](C(=O)N2CCCCC2)NC(=O)[C@H](C)N(C)C(=O)[C@H](CC(C)C)N(C)C(=O)CN(C)C(=O)[C@H](CC(C)C)N(C)C(=O)[C@H](Cc2ccccc2)N(C)C1=O [pd230] ([NMeF]FT[NMeF]L[NMeF][NMeL][Sar][NMeL][NMeA]D-Piperidide; lactam N-11)	0.25 ×10⁻⁶ cm/s

same assay, conditions: human, Caco-2, Caco-2 (membrane permeability)

Structure (SMILES)	Papp
CC[C@H](C)[C@@H]1NC(=O)[C@H](CC(C)C)N(C)C(=O)CCCN(C)C(=O)C[C@@H](C(=O)N2CCCCC2)NC(=O)[C@H](CC(C)C)N(C)C(=O)[C@H](CC(C)C)N(C)C(=O)[C@H]([C@@H](C)O)NC(=O)[C@H](CC(C)C)N(C)C(=O)[C@H](CCCC(O)C(F)(F)F)NC(=O)[C@H](Cc2ccccc2)N(C)C(=O)[C@H](Cc2ccccc2)N(C)C1=O (stereo partly drawn) [Compound D03] ([NMeGABA][NMeL]I[NMeF][NMeF][X12][NMeL]T[NMeL][NMeL]D-Piperidide; lactam N-11)	0.33 ×10⁻⁶ cm/s
CC[C@H](C)[C@H]1C(=O)N[C@@H](C(C)C)C(=O)N(C)CC(=O)N(C)[C@@H](CC(C)C)C(=O)N[C@H](C(=O)N2CCCCC2)CC(=O)N(C)[C@@H](C)C(=O)N[C@@H](COCC(O)C(F)(F)F)C(=O)N(C)[C@@H](CC(C)C)C(=O)N(C)[C@@H](Cc2ccccc2)C(=O)N[C@@H](CC(C)C)C(=O)N(C)[C@@H](Cc2ccccc2)C(=O)N1C (stereo partly drawn) [Compound C15] ([NMeA]S(CH2CH(OH)CF3)[NMeL][NMeF]L[NMeF][NMeI]V[Sar][NMeL]D-Piperidide; lactam N-11)	0.83 ×10⁻⁶ cm/s
CC[C@H](C)[C@@H]1NC(=O)[C@H](CC(C)C)N(C)C(=O)[C@H](CCCC(O)C(F)(F)F)NC(=O)[C@H](Cc2ccccc2)N(C)C(=O)CN(C)C(=O)C[C@@H](C(=O)N2CCCCC2)NC(=O)[C@H](CC(C)C)N(C)C(=O)[C@H](COC(C)(C)C)NC(=O)[C@H](CC(C)C)N(C)C(=O)[C@H](Cc2ccccc2)N(C)C(=O)CN(C)C1=O (stereo partly drawn) [Compound D17] ([Sar][NMeF][X12][NMeL]I[Sar][NMeF][NMeL]S(tBu)[NMeL]D-Piperidide; lactam N-11)	1 ×10⁻⁶ cm/s

Reference: patent US20230096766A1, “AMINO ACID HAVING FUNCTIONAL GROUP CAPABLE OF INTERMOLECULAR HYDROGEN BONDING, PEPTIDE COMPOUND CONTAINING SAME AND METHOD FOR PRODUCTION THEREOF” (Chugai Seiyaku Kabushiki Kaisha, priority 2018, published 2023)
